The values below are quoted from earlier work in publication PMC5601361, “Targeting the Receptor for Advanced Glycation Endproducts (RAGE): A Medicinal Chemistry Perspective” (Journal of Medicinal Chemistry, 2017).

Entries after “also recorded” stand apart in the source; their conditions may differ. Like-named read-outs stand apart in the source and are kept apart here.

For series [1], the target named is human sRAGE. Conditions: SPR.
The target in series [2] is human sRAGE. Also noted: method as in PMID 17660747. As to conditions: V domain, SPR.
In series [3] the target is human sRAGE. Conditions: VC1 domain; ITC; read-out: affinity for RAGE (Kd).
Series [4] concerns the target human sRAGE. Set-up: method as in PMID 17508727. As to conditions: SPR. (In general: In SPR one partner is held on a chip, and binding of the other changes the refractive index at the surface.)
In another series the test system is HT22 cells. Conditions: 10 μM.
In series [5] the test system is human RAGE-Aβ1–42 interaction. Set-up: method as in PMID 26051601. As to conditions: in vitro.
Another series deals with APPswe/PS1 mice. As to conditions: po 50 mg/kg every 2 days for 4 weeks; 50 mg/kg.
Series [6] concerns RAGE-overexpressing brain endothelial cells monolayer. Also noted: method as in PMID 23140885. Conditions: artificial BBB system.
For the next series, the system named is CHO cells. Also noted: method as in PMID 23140885. As to conditions: in vitro.
Another series relates to human RAGE-Aβ. Set-up: method as in PMID 23140885.
The next series deals with human RAGE. Set-up: method as in PMID 25084534. Conditions: V domain; Ca2+-bound S100P homodimer; read-out: affinity for RAGE (Kd).

For the molecule “S100B: Ca2+-binding S100/calgranulin family protein, endogenous RAGE ligand [Compound S100B]”, the Kd is 500 nM on human sRAGE [1] (V domain, read-out: Kd1); 600 nM on human sRAGE [1] (V domain, read-out: Kd2); 11 nM on human sRAGE [1] (VC1 domain, read-out: Kd1); 200 nM at human sRAGE [1] (VC1 domain, read-out: Kd2); 8300 nM on human sRAGE [2] (S100B dimer, read-out: Kd); 1100 nM on human sRAGE [2] (S100B tetramer, read-out: Kd1). Also, the Kd on human sRAGE [2] (S100B tetramer, read-out: Kd2) is 42 nM; on human sRAGE [3], 3200 to 9400 nM; on human sRAGE [4] (V domain, read-out: Kd1) it was 550 nM; on human sRAGE [4] (V domain, read-out: Kd2), 470 nM; at human sRAGE [4] (VC1 domain, read-out: Kd1), 11 nM; at human sRAGE [4] (VC1 domain, read-out: Kd2), 244 nM.

As for `CC(C)(C)OC(=O)N1CCN(CCCOc2ccc(-c3nc4ccc(Oc5ccc(Cl)cc5)cc4o3)cc2)CC1` [Compound 8], the “toxicity in HT22 cells” value in the series with HT22 cells is “not toxic”. In series [5], the “RAGE-Aβ1–42 binding” value is “• RAGE-Aβ1–42 binding inhibition (in vitro)”. In addition, the “amyloid deposition / Aβ and amyloid plaque levels in the brain” value with APPswe/PS1 mice is “did not significantly affect”.

With `CCCCc1sc(-c2ccc(OCCN3CCN(C)CC3)cc2)nc1-c1ccc(Oc2ccc(Cl)cc2)cc1` [Compound 2], the “Aβ1–42 influx / Aβ transport” value in [6] is on record as “Aβ transport inhibition; also recorded: • inhibition of Aβ1–42 influx in the brain”. Further, in the series with CHO cells, the “Aβ1–42-associated NF-κB activation” value is given as “• inhibition of Aβ1–42-associated NF-κB activation (in vitro)”. In the series on human RAGE-Aβ, the RAGE-Aβ binding entry was “• RAGE-Aβ binding inhibition”. In the series on human RAGE-Aβ (ELISA on human RAGE-Aβ (RAGE-Aβ1–42 interaction)), the IC50 (as a rule, the concentration that inhibits the measured activity by half) was 1210 nM.

B1: S100P: S100 family protein binding the RAGE V domain (protein, UniProt P25815 1-95, looked up)
Protein S100-P: MTELETAMGMIIDVFSRYSGSEGSTQTLTKGELKVLMEKELPGFLQSGKDKDAVDKLLKDLDANGDAQVDFSEFIVFVAAITSACHKYFEKAGLK
For B1, on human RAGE, the Kd was 6000 nM.
